Bridges are numbered along the chain shown (N, C = ends). Where no end group is shown, it is not given here. [ ]: non-standard residue; d: D form. R8 = C=CCCCCCC[C@@](C)(N)C(=O)O; S5 = C=CCCC[C@](C)(N)C(=O)O
Key:
[1] = tested on: Neonatal rat ventricular cardiomyocytes (NRVC); test: Anti-ApoA-I IgG-related chronotropic response (beating frequency); assay type: cell-based
Text: Neonatal rat ventricular cardiomyocytes (NRVC) were isolated from ventricles of 1-2 day-old Wistar rats by digestion with low trypsin-EDTA and type 2 collagenase. Animals were killed by decapitation without any anesthesia, analgesia, or administration of neuromuscular blocking agents, in conformity with the Guide for the Care and Use of Laboratory Animals published by the NIH (publication 85-23) and with the authorization (1012/3134/0-R) of the local county veterinary office. Freshly isolated cells were seeded in plastic flasks to allow selective adhesion of cardiac fibroblasts. Thereafter cardiomyocytes were decanted from the flasks and distributed into laminin-coated 90 mm petri dishes.
After 1-2 days' culture, cells were incubated at time intervals with the appropriate concentration of monoclonal anti-ApoA-I IgG (Abcam, Nottingham, UK) or vehicle in serum-free DMEM. The beating frequency of spontaneously contracting small cell monolayers was determined immediately at the end of the pre-incubation period (t=0) and at different times after the addition of various substances. Frequency determinations were performed by a technician (unaware of the experimental conditions) using a light microscope to count the number of contractions per time unit in three different locations of the dish. The regularity of the cell contractions has been previously assessed by monitoring cytosolic-free calcium fluctuations with fluorescent calcium probes (Maturana et al, 2009, Endocrinology 150:3726-3734). […] Competition inhibition experiments with synthetic peptides were performed using the same experimental conditions. Synthetic peptides were co-incubated with 10 μg/ml monoclonal anti-ApoA-I (Abcam, Nottingham, UK) for 2 h at room temperature, before being added to NRVC in dishes, with beating frequency determined as described above.

[2] = CD spectroscopy to determine helical content; assay type: physicochemical; conditions: troughs at 208 and 222 nm, in comparison to non-stapled control peptide F3
Procedure: Circular dichroism (CD) spectra from 185 to 240 nm were collected on a Jasco J-815 spectropolarimeter at 20° C. A typical sample was prepared by dissolving lyophilized peptide in 25% trifluoroethanol in water to obtain a concentration of 2 mM, then diluting this solution 20-fold in water and loading in a quartz cuvette (0.2 cm path length). Baseline CD spectra for 1.25% TFE in water was subtracted from the experimental spectra. Data were normalized by calculating the mean residue ellipticity at wavelength 222 nm, (θ)mrw, λ.

[3] = tested on: anti-ApoA-I antibodies; test: Competition ELISA on plates coated with intact ApoA-I; assay type: binding, human
Procedure: Competition ELISA experiments using selected synthetic peptides were also carried out. Synthetic peptides (dissolved in PBS with 2% bovine serum albumin (BSA) at different concentrations were co-incubated with patient sera containing high levels of anti-ApoA-I IgG for 2 h at room temperature, before being added to the wells coated with purified, human-derived delipidated ApoA-I as described above, prior to development of the assay as described above.
In competition ELISA assays, serum from a patient known to be positive for anti-ApoA-I antibodies was preincubated with peptide F3L1 at different concentrations as indicated in FIG. 3 and then added to ELISA plates coated with intact ApoA-I, with the subsequent assay steps carried out according to the standard protocol.

[4] = tested on: Human monocyte-derived macrophages (HMDMs); test: Anti-ApoA-I IgG-related pro-inflammatory response (TNF-α production); assay type: cell-based
Procedure: Human monocyte-derived macrophages (HMDMs) were obtained by treating human monocytes with interferon (IFN)-γ for 24 hours as previously described (Pagano et al, 2012, J Intern Med). HMDMs were then stimulated in 96-well trays for 24 h with increasing concentrations (5-40 μg/mL) of either polyclonal anti-human ApoA-I (Academy Bio-Medical Company, Houston, Tex., USA) or control antibody (Meridian Life Science, Saco, Me., USA), with IgG from pool+ or pool− (500 μg/mL). In this model, LPS-free anti-ApoA-I IgG has been show to promote the production of TNF-α and IL-6 in a dose dependent manner, with an optimal stimulation at 40 μg/ml (Pagano et al, 2012, J Intern Med).
For competition inhibition experiments, synthetic peptides were co-incubated with 40 μg/ml polyclonal anti-ApoA-I IgG for 2 h at room temperature prior to addition to HMDMs in 96-well plates, and followed by the assessment of IL-6 and TNF-α levels in cell supernatants using Luminex MAP™ Technology. Experiments were performed with blood from three different donors.

[5] = tested on: anti-ApoA-I antibodies; test: ELISA immunoreactivity of ApoA-I digestion fragments (epitope identification); assay type: binding, human; conditions: sera from 3 patients with high and 3 with low autoantibody titers
Procedure: To identify specific endogenous epitopes of ApoA-I, the purified ApoA-I was submitted to enzymatic digestion, hydrolyzing the protein specifically at the carboxyl side of lysine or at the carboxylic side of arginine, followed by peptide separation and purification by reversed phase-high performance liquid chromatography and peptide identification by mass spectrometry. The immunoreactivity to the digested protein and each fraction were tested by ELISA using serum samples from 3 patients with high titers and serum samples from 3 patients with low titers of autoantibodies.
For ApoA-I digested at lysine residues, the enzyme Endoproteinase Lys-C(Roche Applied Science) was used (amount of enzyme 1:50 was 1/50 of protein by weight, incubation for 18 h at 37° C., pH 8.5). ApoA-I digestion with Lys-C allowed identification of fractions 70 and 71 (FIG. 8) containing a previously unreported immunoreactive peptide epitope of amino acid sequence corresponding to amino acid residues 141-182 relative to mature amino acid sequence of ApoA-I of SEQ ID NO: 1, comprising the region derived from helix D of SEQ ID NO: 5 with a deletion of the last 2 amino acids of SEQ ID NO: 5. The amino acid sequence of this epitope is SEQ ID NO: 21.
In order to generate peptide fragments cleaved at arginine residues the conventional way would to use the enzyme ArgC. However, ArgC enzyme has a recognized lack of specificity, generating tryptic peptides, which abolished the immunoreactivity. […] This approach allowed identification of fractions 74 and 80 (FIG. 9) containing another immunoreactive peptide epitope of amino acid sequence corresponding to amino acid residues 216-243 relative to mature amino acid sequence of ApoA-I of SEQ ID NO: 1, comprising the region 1 derived from helix F of SEQ ID NO: 8. The amino acid sequence of this epitope is SEQ ID NO: 25.

[6] = serum from 3 anti-ApoA-I positive patients, FIG. 5

Substance	alpha-helical content [2]	immunoreactivity to anti-ApoA-I antibodies [5]	also measured
Ac-GLLPVLESFKVSFLSALEXaaYTKXaaLNT-NH2 (Ac-GLLPVLESFKVSFLSALEEYTKKLNT-NH2; lactam 19-23; SMILES CC(=O)NCC(=O)N[C@@H](CC(C)C)C(=O)N[C@@H](CC(C)C)C(=O)N1CCC[C@H]1C(=O)N[C@H](C(=O)N[C@@H](CC(C)C)C(=O)N[C@@H](CCC(=O)O)C(=O)N[C@@H](CO)C(=O)N[C@@H](Cc1ccccc1)C(=O)N[C@@H](CCCCN)C(=O)N[C@H](C(=O)N[C@@H](CO)C(=O)N[C@@H](Cc1ccccc1)C(=O)N[C@@H](CC(C)C)C(=O)N[C@@H](CO)C(=O)N[C@@H](C)C(=O)N[C@@H](CC(C)C)C(=O)N[C@@H](CCC(=O)O)C(=O)N[C@H]1CCC(=O)NCCCC[C@@H](C(=O)N[C@@H](CC(C)C)C(=O)N[C@@H](CC(N)=O)C(=O)N[C@H](C(N)=O)[C@@H](C)O)NC(=O)[C@H](CCCCN)NC(=O)[C@H]([C@@H](C)O)NC(=O)[C@H](Cc2ccc(O)cc2)NC1=O)C(C)C)C(C)C) [F3L1]	increased alpha-helical content		effect on anti-ApoA-I IgG related chronotropic response ([1]; antibody pre-incubated with peptide 75 μg/ml for 2 h, FIG. 7): fully abrogated; basal frequency contraction rate ([1]; peptide added alone): did not alter; contraction rate in the presence of 10 nM aldosterone ([1]; peptide added alone, 10 nM aldosterone): did not alter; inhibition of binding of patient serum IgG to intact ApoA-I [3, 6]: competes effectively; inhibition of binding of patient serum IgG to intact ApoA-I ([3]; serum from one anti-ApoA-I positive patient, FIG. 4): capable of competitively inhibiting; effect on TNF-α production induced by anti-ApoA-I IgG ([4]; polyclonal anti-ApoA-I IgG 40 μg/ml pre-incubated with peptide 2 h, FIG. 6A): abrogated; effect on TNF-α production induced by pool of IgG from anti-ApoA-I positive patients ([4]; pooled patient IgG pre-incubated with peptide, FIG. 6B): same effect
Ac-GLLPVLESFKVSFLSXaaLEEYTKXaaLNT-NH2 (Ac-GLLPVLESFKVSFLS[R8]LEEYTK[S5]LNT-NH2; staple 16-23) [F3S2A]	increased alpha-helical content		
LSPLGEEMRDRARAHVDALRTHLAPYSDELRQRLAARLEALK (D2) [SEQ ID NO: 21]		immunoreactive	
Ac-KELYLLKFTVESKVGSTELPLNFSLA-NH2 [scrambled F3, reference compound]			inhibition of binding of patient serum IgG to intact ApoA-I [3, 6]: absence of dose-dependent inhibition
GLLPVLESFKVSFLSALEEYTKKLNT (not fully specified (bridges)) [SEQ ID NO: 9, Region 2 derived from helix F]		more immunoreactive	
amino acid residues 189-215 of mature ApoA-1: peptide corresponding to amino acid residues 189-215 of mature ApoA-1 of SEQ ID NO: 1, containing helix E (LAEYHAKATEHLSTLSEKAKPALEDLR; UniProt P02647 213-239, looked up, fragment)		less immunoreactive	
EEMRDRARAHVDALRTHLAPYSDELRQRLAARLEALKEN (Region derived from Helix D of ApoA-I) [SEQ ID NO: 5]		more immunoreactive	
Ac-VLESFKVSFLSALEXaaYTKXaaLNT-NH2 (Ac-VLESFKVSFLSALEEYTKKLNT-NH2; lactam 15-19; SMILES CC(=O)N[C@H](C(=O)N[C@@H](CC(C)C)C(=O)N[C@@H](CCC(=O)O)C(=O)N[C@@H](CO)C(=O)N[C@@H](Cc1ccccc1)C(=O)N[C@@H](CCCCN)C(=O)N[C@H](C(=O)N[C@@H](CO)C(=O)N[C@@H](Cc1ccccc1)C(=O)N[C@@H](CC(C)C)C(=O)N[C@@H](CO)C(=O)N[C@@H](C)C(=O)N[C@@H](CC(C)C)C(=O)N[C@@H](CCC(=O)O)C(=O)N[C@H]1CCC(=O)NCCCC[C@@H](C(=O)N[C@@H](CC(C)C)C(=O)N[C@@H](CC(N)=O)C(=O)N[C@H](C(N)=O)[C@@H](C)O)NC(=O)[C@H](CCCCN)NC(=O)[C@H]([C@@H](C)O)NC(=O)[C@H](Cc2ccc(O)cc2)NC1=O)C(C)C)C(C)C) [F4L1]	increased alpha-helical content		
VLESFKVSFLSALEEYTKKLNT (not fully specified (bridges)) [SEQ ID NO: 8, Region 1 derived from helix F]		more immunoreactive	
Ac-VLESFKVSXaaLSALEEXaaTKKLNT-NH2 (Ac-VLESFKVS[R8]LSALEE[S5]TKKLNT-NH2; staple 9-16) [F4S2B]	increased alpha-helical content		
QGLLPVLESFKVSFLSALEEYTKKLNTQ (F5) [SEQ ID NO: 25]		immunoreactive	
GLLPVLESFKVSFLSALEEYTKKLNT (Ac-GLLPVLESFKVSFLSALEEYTKKLNT-NH2) [F3, reference compound]			inhibition of binding of patient serum IgG to intact ApoA-I [3, 6]: effect observed

— US10087234B2, “Mimetic peptides” (LES HOPITAUX UNIVERSITAIRES DE GENEVE, priority 2012, dated 2018)
